From ChEMBL document CHEMBL4765434, “Pyrrolo[2,3-d]pyrimidine derivatives as inhibitors of RET: Design, synthesis and biological evaluation” (Eur J Med Chem, 2020)
Calls of active or inactive are those of the source. No cut-off for these calls is given here.

Key:
[1] = biological target: T1, Proto-oncogene tyrosine-protein kinase receptor Ret (Homo sapiens, UniProt P07949); test: Inhibition of recombinant human GST-tagged RET cytoplasmic domain (658 to 1114 residues) expressed in baculovirus expression system using 5-FAM-EEPLYWSFPAKKK-CONH2 as substrate preincubated for 60 mins followed by substrate addition by microfluidic assay
T1 sequence (P07949 whole entry, the tested form may be a part): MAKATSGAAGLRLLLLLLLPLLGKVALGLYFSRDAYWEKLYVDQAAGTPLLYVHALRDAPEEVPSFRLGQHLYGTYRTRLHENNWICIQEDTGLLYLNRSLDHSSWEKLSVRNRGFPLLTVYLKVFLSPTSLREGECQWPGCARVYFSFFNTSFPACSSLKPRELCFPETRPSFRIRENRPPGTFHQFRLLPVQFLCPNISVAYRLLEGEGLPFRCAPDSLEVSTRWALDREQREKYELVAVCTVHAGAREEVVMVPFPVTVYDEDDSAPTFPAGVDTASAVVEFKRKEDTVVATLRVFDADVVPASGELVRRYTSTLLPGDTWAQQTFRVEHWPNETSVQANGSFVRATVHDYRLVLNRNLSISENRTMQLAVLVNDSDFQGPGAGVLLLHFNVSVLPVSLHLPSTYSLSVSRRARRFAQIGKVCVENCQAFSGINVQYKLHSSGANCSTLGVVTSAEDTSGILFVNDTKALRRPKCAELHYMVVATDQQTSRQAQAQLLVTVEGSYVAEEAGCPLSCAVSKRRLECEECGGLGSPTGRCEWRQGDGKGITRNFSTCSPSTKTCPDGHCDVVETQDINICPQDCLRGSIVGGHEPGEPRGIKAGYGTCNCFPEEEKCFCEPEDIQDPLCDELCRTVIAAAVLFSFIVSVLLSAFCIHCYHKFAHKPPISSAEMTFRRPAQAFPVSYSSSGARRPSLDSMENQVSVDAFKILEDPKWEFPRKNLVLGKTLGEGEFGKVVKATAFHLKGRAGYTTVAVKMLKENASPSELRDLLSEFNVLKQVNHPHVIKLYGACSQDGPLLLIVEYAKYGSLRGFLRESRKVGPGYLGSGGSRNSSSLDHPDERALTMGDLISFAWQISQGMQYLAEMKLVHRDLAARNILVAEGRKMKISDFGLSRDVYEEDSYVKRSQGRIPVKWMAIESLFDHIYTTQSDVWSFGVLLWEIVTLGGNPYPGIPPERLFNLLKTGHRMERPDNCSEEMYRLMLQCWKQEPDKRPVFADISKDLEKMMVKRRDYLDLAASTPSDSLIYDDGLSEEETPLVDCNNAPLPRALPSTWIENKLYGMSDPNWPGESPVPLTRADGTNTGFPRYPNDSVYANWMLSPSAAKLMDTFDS

LC-2-ad [2] = test: Growth inhibition of human LC-2-ad cells measured after 3 days by resazurin staining based fluorescence assay; assay type: functional; conditions: 72 h, time 3 day
[3] = biological target: Proto-oncogene tyrosine-protein kinase receptor Ret (Homo sapiens, UniProt P07949, V804M); test: Inhibition of recombinant human N-terminal GST-HIS6 fused RET V804M mutant (658 to 1114 residues) expressed in Sf9 insect cells using 5-FAM-EEPLYWSFPAKKK-CONH2 as substrate preincubated for 60 mins followed by substrate addition by microfluidic assay
Sequence of Proto-oncogene tyrosine-protein kinase receptor Ret (Homo sapiens, UniProt P07949, V804M) (P07949 29-1114 V804M limits assumed): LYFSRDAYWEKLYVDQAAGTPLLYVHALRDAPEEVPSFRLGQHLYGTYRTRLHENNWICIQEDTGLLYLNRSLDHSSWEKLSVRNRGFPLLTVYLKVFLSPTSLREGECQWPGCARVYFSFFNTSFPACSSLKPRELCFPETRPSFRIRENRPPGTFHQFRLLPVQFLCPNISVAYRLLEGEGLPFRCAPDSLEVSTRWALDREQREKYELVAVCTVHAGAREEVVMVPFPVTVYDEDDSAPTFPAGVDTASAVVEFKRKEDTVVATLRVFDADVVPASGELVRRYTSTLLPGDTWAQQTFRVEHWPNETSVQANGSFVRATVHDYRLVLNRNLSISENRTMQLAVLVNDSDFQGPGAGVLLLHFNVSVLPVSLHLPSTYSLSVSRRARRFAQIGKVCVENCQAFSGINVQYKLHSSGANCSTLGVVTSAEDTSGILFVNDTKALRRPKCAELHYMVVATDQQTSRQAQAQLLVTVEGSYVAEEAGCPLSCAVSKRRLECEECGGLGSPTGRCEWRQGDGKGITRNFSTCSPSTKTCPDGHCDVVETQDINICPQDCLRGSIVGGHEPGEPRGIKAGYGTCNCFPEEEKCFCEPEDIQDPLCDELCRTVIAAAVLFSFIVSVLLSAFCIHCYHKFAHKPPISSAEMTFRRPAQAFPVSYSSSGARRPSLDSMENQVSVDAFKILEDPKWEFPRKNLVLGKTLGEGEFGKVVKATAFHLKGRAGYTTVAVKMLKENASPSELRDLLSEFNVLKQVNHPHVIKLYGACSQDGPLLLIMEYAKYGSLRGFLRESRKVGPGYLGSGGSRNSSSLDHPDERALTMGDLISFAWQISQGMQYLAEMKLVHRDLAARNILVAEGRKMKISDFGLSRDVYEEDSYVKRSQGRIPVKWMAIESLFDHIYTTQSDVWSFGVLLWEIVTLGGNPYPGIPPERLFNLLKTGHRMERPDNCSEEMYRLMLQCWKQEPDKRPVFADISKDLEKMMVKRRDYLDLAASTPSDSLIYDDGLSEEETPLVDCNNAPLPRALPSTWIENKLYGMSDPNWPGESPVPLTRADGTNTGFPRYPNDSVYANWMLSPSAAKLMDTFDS

LC-2-ad [4] = test: Inhibition of cell migration in human LC-2-ad cells assessed as migrated distance at 1 uM measured after 52 hrs by microscopic method (reference value: 819.01 +/- 65.76 micrometer); assay type: functional
[5] = biological target: T1, Proto-oncogene tyrosine-protein kinase receptor Ret; test: Non competitive inhibition of recombinant human GST-tagged RET cytoplasmic domain (658 to 1114 residues) expressed in baculovirus expression system at 3.125 to 50 nM using 5-FAM-EEPLYWSFPAKKK-CONH2 as substrate by Lineweaver-burk plot analysis; conditions: dose 3.125-50 nM
[6] = biological target: Epidermal growth factor receptor (Homo sapiens, UniProt P00533); test: Inhibition of EGFR (unknown origin)
Sequence of Epidermal growth factor receptor (P00533 whole entry): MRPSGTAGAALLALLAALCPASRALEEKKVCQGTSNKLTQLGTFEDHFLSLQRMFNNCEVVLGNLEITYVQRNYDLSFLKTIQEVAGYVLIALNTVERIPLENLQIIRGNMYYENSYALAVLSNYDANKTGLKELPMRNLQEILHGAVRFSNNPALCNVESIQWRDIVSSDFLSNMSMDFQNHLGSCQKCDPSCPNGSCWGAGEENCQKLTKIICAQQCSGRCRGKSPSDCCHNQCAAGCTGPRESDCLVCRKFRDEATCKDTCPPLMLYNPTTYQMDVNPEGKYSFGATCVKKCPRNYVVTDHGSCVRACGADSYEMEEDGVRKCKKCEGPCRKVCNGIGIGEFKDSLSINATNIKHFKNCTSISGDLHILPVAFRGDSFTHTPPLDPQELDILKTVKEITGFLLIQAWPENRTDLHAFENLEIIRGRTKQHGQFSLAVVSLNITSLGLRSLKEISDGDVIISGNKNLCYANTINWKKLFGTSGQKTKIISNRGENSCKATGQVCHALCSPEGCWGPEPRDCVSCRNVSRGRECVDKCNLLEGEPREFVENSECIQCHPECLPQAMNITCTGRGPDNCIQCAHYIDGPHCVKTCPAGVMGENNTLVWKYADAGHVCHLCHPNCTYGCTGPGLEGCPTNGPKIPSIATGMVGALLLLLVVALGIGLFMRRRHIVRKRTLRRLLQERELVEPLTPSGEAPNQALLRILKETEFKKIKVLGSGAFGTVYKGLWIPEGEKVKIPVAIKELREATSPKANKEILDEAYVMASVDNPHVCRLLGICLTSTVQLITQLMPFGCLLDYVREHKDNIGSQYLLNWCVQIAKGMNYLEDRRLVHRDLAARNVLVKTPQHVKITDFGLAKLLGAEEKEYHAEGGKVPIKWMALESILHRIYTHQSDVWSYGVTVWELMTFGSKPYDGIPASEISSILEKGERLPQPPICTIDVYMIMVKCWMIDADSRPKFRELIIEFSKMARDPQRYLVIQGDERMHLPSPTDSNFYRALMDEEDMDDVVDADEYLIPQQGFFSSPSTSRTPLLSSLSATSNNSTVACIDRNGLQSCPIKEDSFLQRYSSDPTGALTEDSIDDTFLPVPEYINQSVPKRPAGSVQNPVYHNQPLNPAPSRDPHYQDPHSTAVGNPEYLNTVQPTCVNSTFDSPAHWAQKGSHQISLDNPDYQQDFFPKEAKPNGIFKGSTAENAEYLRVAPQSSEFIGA

[7] = biological target: Mitogen-activated protein kinase kinase kinase 14 (Homo sapiens, UniProt Q99558); test: Inhibition of NIK (unknown origin)
Sequence of Mitogen-activated protein kinase kinase kinase 14 (Q99558 whole entry): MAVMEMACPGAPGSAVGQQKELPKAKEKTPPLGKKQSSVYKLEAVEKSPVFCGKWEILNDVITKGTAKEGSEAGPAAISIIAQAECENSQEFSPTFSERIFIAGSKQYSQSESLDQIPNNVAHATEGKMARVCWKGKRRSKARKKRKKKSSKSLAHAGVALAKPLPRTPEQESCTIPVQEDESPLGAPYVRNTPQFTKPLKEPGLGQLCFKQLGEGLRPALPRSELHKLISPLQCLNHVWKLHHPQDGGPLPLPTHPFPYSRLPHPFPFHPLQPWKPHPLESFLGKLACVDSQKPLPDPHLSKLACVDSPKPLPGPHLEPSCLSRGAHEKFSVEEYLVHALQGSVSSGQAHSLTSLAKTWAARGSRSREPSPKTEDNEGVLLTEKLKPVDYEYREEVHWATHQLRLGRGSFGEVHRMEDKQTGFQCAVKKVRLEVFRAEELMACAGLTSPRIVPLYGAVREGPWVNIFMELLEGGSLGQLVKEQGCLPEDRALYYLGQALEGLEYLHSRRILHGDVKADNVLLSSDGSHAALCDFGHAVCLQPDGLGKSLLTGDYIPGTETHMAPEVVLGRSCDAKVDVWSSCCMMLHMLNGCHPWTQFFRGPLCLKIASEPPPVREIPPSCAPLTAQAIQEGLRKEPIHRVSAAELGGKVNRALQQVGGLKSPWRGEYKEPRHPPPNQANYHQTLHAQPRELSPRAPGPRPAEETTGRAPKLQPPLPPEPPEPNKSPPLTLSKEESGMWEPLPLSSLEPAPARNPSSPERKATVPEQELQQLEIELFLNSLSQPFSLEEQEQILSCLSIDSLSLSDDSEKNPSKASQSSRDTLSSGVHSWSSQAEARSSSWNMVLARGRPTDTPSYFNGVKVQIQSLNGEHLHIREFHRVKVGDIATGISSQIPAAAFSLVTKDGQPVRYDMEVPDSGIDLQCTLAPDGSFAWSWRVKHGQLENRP

[8] = biological target: Mitogen-activated protein kinase kinase kinase kinase 4 (Homo sapiens, UniProt O95819); test: Inhibition of MAP4K4 (unknown origin)
[9] = biological target: T1, Proto-oncogene tyrosine-protein kinase receptor Ret; test: Non ATP-competitive inhibition of recombinant human GST-tagged RET cytoplasmic domain (658 to 1114 residues) expressed in baculovirus expression system at 3.125 to 50 nM using 5-FAM-EEPLYWSFPAKKK-CONH2 as substrate; conditions: dose 3.125-50 nM
[10] = biological target: T2, Serine/threonine-protein kinase Nek2 (Homo sapiens, UniProt P51955); test: Inhibition of Nek2 (unknown origin)
T2 sequence (P51955 whole entry): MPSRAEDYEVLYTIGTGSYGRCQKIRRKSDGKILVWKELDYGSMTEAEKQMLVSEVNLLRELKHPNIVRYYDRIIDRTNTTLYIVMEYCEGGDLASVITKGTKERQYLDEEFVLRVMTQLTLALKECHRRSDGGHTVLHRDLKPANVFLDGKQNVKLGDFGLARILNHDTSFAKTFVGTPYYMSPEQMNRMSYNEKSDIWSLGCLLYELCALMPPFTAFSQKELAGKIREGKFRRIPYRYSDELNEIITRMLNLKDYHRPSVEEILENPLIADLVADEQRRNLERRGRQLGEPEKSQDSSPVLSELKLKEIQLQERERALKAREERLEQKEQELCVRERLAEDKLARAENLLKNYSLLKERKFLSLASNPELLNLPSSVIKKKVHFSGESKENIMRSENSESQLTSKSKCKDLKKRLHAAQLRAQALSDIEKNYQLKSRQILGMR

Aurora kinase A = biological target: T3, Aurora kinase A (Homo sapiens, UniProt O14965); test: Inhibition of Aurora A (unknown origin)
T3 sequence (O14965 whole entry): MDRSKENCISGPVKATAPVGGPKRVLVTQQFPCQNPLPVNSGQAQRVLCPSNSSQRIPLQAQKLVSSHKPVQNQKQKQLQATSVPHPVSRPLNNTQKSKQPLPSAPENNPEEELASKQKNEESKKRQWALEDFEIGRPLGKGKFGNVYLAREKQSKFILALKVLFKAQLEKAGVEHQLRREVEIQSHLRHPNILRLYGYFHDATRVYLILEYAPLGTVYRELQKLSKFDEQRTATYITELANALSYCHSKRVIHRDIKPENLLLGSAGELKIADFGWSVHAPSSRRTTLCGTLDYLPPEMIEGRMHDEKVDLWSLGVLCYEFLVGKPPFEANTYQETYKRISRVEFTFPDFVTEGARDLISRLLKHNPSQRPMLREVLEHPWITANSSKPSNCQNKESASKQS

[11] = biological target: Macrophage colony-stimulating factor 1 receptor (Homo sapiens, UniProt P07333); test: Inhibition of CSF1R (unknown origin)
LC-2-ad [12] = test: Inhibition of cell migration in human LC-2-ad cells assessed as migrated distance at 3 uM measured after 52 hrs by microscopic method (reference value: 819.01 +/- 65.76 micrometer); assay type: functional
Aurora kinase B = Aurora kinase B (Homo sapiens, UniProt Q96GD4); test: Inhibition of Aurora B (unknown origin)
Sequence of Aurora kinase B (Q96GD4 whole entry): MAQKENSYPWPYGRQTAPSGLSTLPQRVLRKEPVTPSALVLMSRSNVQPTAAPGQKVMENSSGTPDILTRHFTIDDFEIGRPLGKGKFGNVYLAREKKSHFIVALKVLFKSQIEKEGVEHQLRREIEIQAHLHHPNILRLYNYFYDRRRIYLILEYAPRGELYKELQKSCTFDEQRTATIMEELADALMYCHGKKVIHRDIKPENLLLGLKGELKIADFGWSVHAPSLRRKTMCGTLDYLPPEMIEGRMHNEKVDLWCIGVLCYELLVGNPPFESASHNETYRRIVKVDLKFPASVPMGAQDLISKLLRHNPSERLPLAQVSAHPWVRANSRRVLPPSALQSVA

Row | IC50 [1] [µM] | Compound | also measured
1 | > 20 | COc1ccc(-c2cc3c(Nc4ccc(CC(=O)Nc5ccc(F)cc5)cc4)ncnc3[nH]2)cc1 | –
2 | 0.12 | COc1ccc(-c2cc3c(Nc4ccc(CC(=O)Nc5cc(C(C)(C)C)nn5C)cc4)ncnc3[nH]2)cc1 | –
3 | 0.009 | Cn1cc(-c2cc3c(Nc4ccc(CC(=O)Nc5cc(C(C)(C)C)on5)cc4)ncnc3[nH]2)cn1 | IC50 [3]: 0.0635 µM; GI50 (LC-2-ad [2]): 0.136 µM
4 | 2.44 | COc1ccc(-c2cc3c(Nc4ccc(CC(=O)Nc5ccc(C(C)C)cc5)cc4)ncnc3[nH]2)cc1 | –
5 | > 20 | CC(C)c1ccc(NC(=O)Cc2ccc(Nc3ncnc4[nH]c(-c5cnn(C)c5)cc34)cc2)cc1 | –
6 | > 20 | CS(=O)(=O)c1ccc(NC(=O)Cc2ccc(Nc3ncnc4[nH]ccc34)cc2)cc1 | –
7 | > 20 | Cn1cc(-c2cc3c(Nc4ccc(CC(=O)Nc5cccc(F)c5)cc4)ncnc3[nH]2)cn1 | –
8 | 0.05 | CC(C)(C)c1cc(NC(=O)Cc2ccc(Nc3ncnc4[nH]c(-c5ccsc5)cc34)cc2)no1 | GI50 (LC-2-ad [2]): 0.18 µM
9 | > 20 | O=C(Cc1ccc(Nc2ncnc3[nH]c(-c4ccsc4)cc23)cc1)Nc1cccc(F)c1 | –
10 | > 20 | CC(C)(C)c1ccc(-c2cc3c(Nc4ccc(CC(=O)Nc5cccc(F)c5)cc4)ncnc3[nH]2)cc1 | –
11 | 13.5 | CC(C)(C)c1ccc(-c2cc3c(Nc4ccc(CC(=O)Nc5cc(C(C)(C)C)on5)cc4)ncnc3[nH]2)cc1 | –
12 | 0.009 | Cn1nc(C(C)(C)C)cc1NC(=O)Cc1ccc(Nc2ncnc3[nH]c(-c4ccc(S(C)(=O)=O)cc4)cc23)cc1 | –
13 | 15.8 | CC(C)(C)c1ccc(NC(=O)Cc2ccc(Nc3ncnc4[nH]ccc34)cc2)cc1 | –
14 | 0.044 | CC(=O)c1ccc(-c2cc3c(Nc4ccc(CC(=O)Nc5cc(C(C)(C)C)on5)cc4)ncnc3[nH]2)cc1 | –
15 | > 20 | COc1ccc(-c2cc3c(Nc4ccc(CC(=O)Nc5cccc(F)c5)cc4)ncnc3[nH]2)cc1 | –
16 | 7.69 | CC(C)c1ccc(NC(=O)Cc2ccc(Nc3ncnc4[nH]ccc34)cc2)cc1 | GI50 (LC-2-ad [2]): 29.6 µM
17 | 0.021 | Cn1cc(-c2cc3c(Nc4ccc(CC(=O)Nc5cc(C(C)(C)C)nn5C)cc4)ncnc3[nH]2)cn1 | IC50 [3]: 0.0728 µM
18 | 0.0068 | CC(C)(C)c1cc(NC(=O)Cc2ccc(Nc3ncnc4[nH]c(-c5ccc(S(C)(=O)=O)cc5)cc34)cc2)no1 | inhibition [5]: Active; IC50 [6]: 56.8 µM; IC50 [7]: > 10 µM; IC50 [8]: 3.43 µM; inhibition [9]: Active; IC50 [10]: > 200 µM; IC50 [3]: 0.0135 µM; IC50 (Aurora kinase A): 0.242 µM; GI50 (LC-2-ad [2]): 0.107 µM; IC50 [11]: 1.65 µM; Activity (LC-2-ad [12]): 356.41 um; IC50 (Aurora kinase B): 0.536 µM
19 | 0.052 | Cn1nc(C(C)(C)C)cc1NC(=O)Cc1ccc(Nc2ncnc3[nH]c(-c4ccsc4)cc23)cc1 | –
20 | > 20 | O=C(Cc1ccc(Nc2ncnc3[nH]ccc23)cc1)Nc1cccc(F)c1 | –
21 | > 20 | O=C(Cc1ccc(Nc2ncnc3[nH]ccc23)cc1)Nc1ccc2c(c1)OCO2 | –

The next lines start with the compound.

Row | Compound | IC50 [1] [µM] | also measured
22 | Cn1nc(C(C)(C)C)cc1NC(=O)Cc1cccc(Nc2ncnc3[nH]ccc23)c1 | 39.6 | –
23 | CC(C)(C)c1cc(NC(=O)Cc2ccc(Nc3ncnc4sccc34)cc2)no1 | 0.96 | GI50 (LC-2-ad [2]): 15.2 µM
24 | O=C(Cc1ccc(Nc2ncnc3[nH]ccc23)cc1)Nc1cccc2ncccc12 | 19 | –
25 | COc1cc2nccc(Oc3ccc(NC(=O)C4(C(=O)Nc5ccc(F)cc5)CC4)cc3)c2cc1OC [CABOZANTINIB] | – | Activity (LC-2-ad [4]): 287.3 um
26 | O=C(Cc1ccc(Nc2ncnc3[nH]ccc23)cc1)Nc1ccc(C(F)(F)F)c(Cl)c1 | > 20 | –
27 | O=C(Cc1ccc(Nc2ncnc3sccc23)cc1)Nc1cccc(F)c1 | > 20 | –
28 | CC(C)(C)c1cc(NC(=O)Cc2cccc(Nc3ncnc4[nH]ccc34)c2)no1 | 31.6 | GI50 (LC-2-ad [2]): 43.7 µM
29 | Cn1nc(C(C)(C)C)cc1NC(=O)Cc1ccc(Nc2ncnc3c2ccn3C)cc1 | 3.93 | GI50 (LC-2-ad [2]): 36.4 µM
30 | O=C(Cc1ccc(Nc2ncnc3[nH]ccc23)cc1)NC1CCC1 | 3.91 | –
31 | CC(C)(C)c1cc(NC(=O)Cc2ccc(Nc3ncnc4[nH]ccc34)cc2)no1 | 0.076 | GI50 (LC-2-ad [2]): 1.26 µM
32 | O=C(Cc1ccc(Nc2ncnc3[nH]ccc23)cc1)Nc1ccc(OC(F)(F)F)cc1 | > 20 | –
33 | Cn1nc(C(C)(C)C)cc1NC(=O)Cc1ccc(Nc2ncnc3sccc23)cc1 | 1.06 | GI50 (LC-2-ad [2]): 17.5 µM
34 | O=C(Cc1ccc(Nc2ncnc3[nH]ccc23)cc1)NCc1ccccc1 | 4.65 | –
35 | Cn1cc(-c2cc3c(Nc4ccc(CC(=O)Nc5cc(C(C)(C)C)nn5C)cc4)ncnc3s2)cn1 | 1.39 | –
36 | Cn1ccc2c(Nc3ccc(CC(=O)Nc4cc(C(C)(C)C)on4)cc3)ncnc21 | 3.51 | –
37 | O=C(Cc1ccc(Nc2ncnc3[nH]ccc23)cc1)NC1CC1 | 2.37 | GI50 (LC-2-ad [2]): 14 µM
38 | Cn1cc(-c2cc3c(Nc4ccc(CC(=O)Nc5cc(C(C)(C)C)on5)cc4)ncnc3s2)cn1 | 0.82 | –
39 | O=C(Cc1ccc(Nc2ncnc3[nH]ccc23)cc1)Nc1cccc(C(F)(F)F)c1 | 16.2 | GI50 (LC-2-ad [2]): 33.5 µM
40 | Cn1nc(C(C)(C)C)cc1NC(=O)Cc1ccc(Nc2ncnc3[nH]ccc23)cc1 | 0.127 | GI50 (LC-2-ad [2]): 1.65 µM
41 | COc1cc(NC(=O)Cc2ccc(Nc3ncnc4[nH]ccc34)cc2)cc(OC)c1OC | 47.6 | –
